Data on two compounds can be found in article PMC3857039, “First Quantitative Imaging of Organic Fluorine within Angiogenic Tissues by Particle Induced Gamma-Ray Emission (PIGE) Analysis: First PIGE Organic Fluorine Imaging” (Pharmaceutics, 2011).

Where a SMILES comes first, the peptide text is derived from it. [ ]: non-standard residue; d: D form. The star is where a group is joined. X1 = FC(F)(F)C(F)(F)C(F)(F)C(F)(F)C(F)(F)C(F)(F)CCCOCCOCCOCCN*

Series [1] deals with U87 human glioma cells tumor xenografted on the CAM. As to the kind of experiment: PIGE/RBS quantification of fluorine in sections of U87 glioma tumor implanted on the CAM after intravascular injection of fluorinated tracer. Format: in vivo, chicken. Particulars: for Average fluorine concentration, pathological tissue, Tumor: FDG 1.53 M; for Average fluorine concentration, pathological tissue, Tumor / Average fluorine concentration, pathological tissue, tumor section (surrounding tissue) / Average fluorine concentration, pathological tissue, capillaries of tumor section: sacrifice 6 h after injection, PIGE, per g dry mass. The protocol: (§1) In preparation for the intravascular injection, 274 mg of FDG is dissolved in 1 mL sterile PBS. For the polyfluorinated glucose solution, 10 mg of the probe was added to 1 mL of polypropylene glycol (MW = 400 g/mol). F13-CBO-P11 solutions were prepared in sterile PBS. For the latter, solutions were obtained by the addition of 20 mg and 35 mg of peptide in 1 mL sterile PBS.
U87 human glioma cells (ATCC) were selected for the study as an established model for malignant gliomas that form highly vascularized tumors. Cells were maintained in culture using Dulbecco's modified Eagle's medium (DMEM) with 10% FBS, L-glutamine (2 mmol L^−1), and antibiotics (penicillin 50 UI mL^−1, streptomycin 50 μg mL^−1). Cell culture was performed in a 37 °C incubator with humidified atmosphere and 5% CO2. Cells were grown to confluence, harvested after trypsinization, and re-suspended in serum-free DMEM for implantation.
(§2) Fertilized chicken eggs were incubated at 37 °C in a humidified atmosphere. On day 4 of incubation, a window was made in the shell in order to visualize the chorio allantoïc membrane (CAM). On embryonic day 10, in the tumor group, a ring was put on the CAM and U87 glioma cells (5 million cells per egg suspended in 20 μL of medium) were deposited on the CAM within the ring after gentle laceration of the surface. In the other group, a nylon grid was put on the CAM to allow normal tissue to grow on the grid. After 7 days of implantation (embryonic day 17), FDG, polyfluorinated glucose and F13-CBO-P11 solutions were then injected in a blood vessel of the CAM of each egg (100 μL per embryo). Embryos were sacrificed 6 hours after injection. All samples were removed and snap-frozen in liquid nitrogen-chilled isopentane at −160 °C. CAM samples and normal tissue (S1, Scheme 1) coming from nylon grid were then put on targets (2 mm-thick and 20 mm-diameter aluminium target with a 5 mm-hole in the centre) and freeze-dried during 3 days at−30 °C in a cryostat (CM3050S, Leica Microsystems). Tumors were conserved at −80 °C until sectioning. For tumor tissue, successive serial sections (at 100, 200 and 300 μm) were obtained from the CAM to the tumor (S2 to S4, Scheme 1) using the cryostat, put on targets and freeze-dried. After sample preparation, microphotographs were taken to monitor the experiment.
(§3) Particle Induced γ-ray Emission (PIGE) and Rutherford Backscattering Spectrometry (RBS) were performed simultaneously to determine trace elements quantitative distribution, such as F and Fe, and major element as C, N, and O determination, respectively (Figure1). Analyses were performed with proton beam energy at 3.4 MeV in order to benefit from a high cross section for the nuclear reaction for fluorine. Analyses were realized on zones of typically 850 × 850 μm in a scanning mode of the proton beam. The beam was focused onto the sample surface to a spot of 5 μm in diameter, resulting in a proton beam current of 500 pA as measured with a Faraday cup below the sample. Characteristics gamma rays emitted from elements of the target were detected with an ultralow energy planar germanium detector (surface of the Ge crystal is 100 mm², thickness 10 mm) placed at 45° from incident beam. The γ-ray detector was covered by a 100 μm thick carbon filter (hole 0.2% of the total filter surface), to protect the γ-ray detector from backscattered particles. The RBS measurements were performed using a PIPS detector (passivated implanted planar silicon) placed at 135° from the incident beam direction.
(§4) CaF2 micromatter standard (certified material from NIST) and a PVDF film (polyvinylidene difluoride, 25 μm thick) were used as external standard in order to verify the quantification process. γ-ray emission data were analyzed with the Supavisio software to create mask of interesting areas of selected chemical elements. RBS data were analyzed with SIMNRA code.
The quantification of fluorine was performed by comparative analysis with reference standard. […]

The test system is the same in series [2]. Described as above. To be noted: Sample 2, section S1 (tumor section); FDG 0.77 M in PBS, 100 μL per embryo, sacrifice 6 h after injection; PIGE; per g dry mass. Format: in vivo, chicken.
Series [3] has as its system chicken chorioallantoic membrane (CAM). As to the kind of experiment: PIGE/RBS quantification of fluorine in normal CAM tissue and capillaries after intravascular injection of fluorinated tracer. Format: in vivo. Particulars: for Average fluorine concentration, physiological tissue, Capillaries / Average fluorine concentration, physiological tissue, CAM (surrounding tissue): 100 μL per embryo, sacrifice 6 h after injection, PIGE. On the procedure: as §1, §2, §3, §4
The quantification of fluorine was performed by comparative analysis with reference standard. PVDF films were analyzed in order to simulate the composition and thickness of biological samples. PyMCA software was used to fit the 110 keV γ peak on PIGE spectra on a PVDF film and biological samples. The intensity of the peak in the PVDF was used to normalize yield in samples [14, 16].
The combination of PIGE and RBS quantitative data were used for mass normalization of y-ray emission, leading to element concentrations expressed in terms of μg of element per g of dry mass sample. […]

The mark [4] stands for this setting: Sample 3, section S1 (CAM sample, no tumor), FDG 1.53 M in PBS, per g dry mass.
The mark [5] stands for this setting: Sample 6, serial tumor section S2, 20 mM in PBS, 100 μL per embryo.
[6] abbreviates: Sample 7, serial tumor section S2, 35 mM in PBS, 100 μL per embryo.
Where [7] appears, read: Sample 8, section S1 (CAM sample, no tumor), 35 mM in PBS, per g dry mass.

For `O=C[C@H]([18F])[C@@H](O)[C@H](O)[C@H](O)CO` [FDG, 2-deoxy-2-[18F]fluoro-D-glucose], the “Average fluorine concentration, pathological tissue, Tumor” value in series [1] (Sample 3, serial tumor section S2, 100 μL per embryo) turned out to be 1640±170 μg/g; in series [1] (Sample 3, serial tumor section S3, 100 μL per embryo), 1950±240 μg/g; in series [1] (Sample 3, serial tumor section S4, 100 μL per embryo), 1470±140 μg/g; in series [2], 1570±180 μg/g. The “Ratio of fluorine concentrations between capillaries and tissues” value in series [3] (FDG 0.77 and 1.53 M) is “close to one”. The “Average fluorine concentration within capillaries as well as in surrounding tissues (homogeneous distribution)” value in series [3] (FDG 0.77 and 1.53 M, overall average of Table 1) is “about 1600 μg/g”. Moreover, the “Average fluorine concentration, physiological tissue, CAM” value in series [3] (Sample 1, section S1 (CAM sample, no tumor), FDG 1.53 M in PBS, 100 μL per embryo into CAM blood vessel, embryonic day 17, sacrifice 6 h after injection, freeze-dried, PIGE 3.4 MeV, per g dry mass) is 1560±180 μg/g. Moreover, the “Average fluorine concentration, physiological tissue, Capillaries” value in series [3] (Sample 1, section S1 (CAM sample, no tumor), FDG 1.53 M in PBS, per g dry mass) is 960±100 μg/g; in series [3] (setting [4]), 1460±170 μg/g. Moreover, in series [3] (setting [4]), the “Average fluorine concentration, physiological tissue, CAM (surrounding tissue)” value came to 1820±210 μg/g.

`CC[C@H](C)[C@@H]1NC(=O)[C@H](Cc2c[nH]cn2)NC(=O)[C@H](CCC(N)=O)NC(=O)CNC(=O)[C@H](CCC(N)=O)NC(=O)[C@H](Cc2c[nH]cn2)NC(=O)[C@@H]2CCCN2C(=O)[C@H](CCCCN)NC(=O)[C@H]([C@@H](C)CC)NC(=O)[C@H](CCCNC(=N)N)NC(=O)[C@H](CCSC)NC(=O)[C@H]([C@@H](C)CC)NC(=O)[C@H](CCC(N)=O)NC(=O)[C@@H]2CCCN2C(=O)[C@@H](Cc2ccccc2)NC(=O)[C@H](CCC(=O)NCCOCCOCCOCCCC(F)(F)C(F)(F)C(F)(F)C(F)(F)C(F)(F)C(F)(F)F)NC(=O)CNC1=O` [Compound F13-CBO-P11] (cyclo(E(X1)[dF]PQIMRIKPHQGQHIG)): the “Average fluorine concentration, pathological tissue, tumor section (surrounding tissue)” value was determined as 450±35 μg/g in series [1] (Sample 6, serial tumor section S1, 20 mM in PBS, 100 μL per embryo (0.49 mg fluorine)); 270±20 μg/g in series [1] (setting [5]); 345±30 μg/g in series [1] (Sample 7, serial tumor section S1, 35 mM in PBS, 100 μL per embryo (0.85 mg fluorine)); 215±35 μg/g in series [1] (setting [6]). The “Average fluorine concentration, pathological tissue, capillaries of tumor section” value in series [1] (Sample 6, serial tumor section S1, 20 mM in PBS, 100 μL per embryo) amounted to 610±70 μg/g; in series [1] (setting [5]), 360±50 μg/g; in series [1] (Sample 7, serial tumor section S1, 35 mM in PBS, 100 μL per embryo), 650±70 μg/g; in series [1] (setting [6]) it was 460±45 μg/g. Besides, in series [1] (sample 6 (20 mM) versus sample 7 (35 mM)), the “Dose dependence of fluorine uptake” value is “not dose dependant”. Also, the “Fold higher fluorine concentration in capillaries than in surrounding tissue, tumor sections” value in series [1] (samples 6 and 7, 20 and 35 mM) is 1.5 times. In addition, the “Average fluorine concentration, physiological tissue, CAM (surrounding tissue)” value in series [3] (setting [7]) was 2050±175 μg/g. Besides, the “Average fluorine concentration, physiological tissue, Capillaries” value in series [3] (setting [7]) is 6570±555 μg/g. Moreover, the “Fold higher fluorine concentration in capillaries than in surrounding tissue, normal tissue” value in series [3] (sample 8, 35 mM) is 3 times.
